Here are results for 1 compound from patent US7718677B2, “Methods and compositions for reduction of side effects of therapeutic treatments” (priority 2007, dated 2010).

Series [1] relates to Squirrel (Saimiri sciureus) monkeys with nigrostriatal damage. Nature of the series: Levodopa-induced dyskinesias in MPTP-lesioned monkeys, nicotine in drinking solution before levodopa (Example 1). The class given is in vivo. The note with it: scale 0-4, mean ± SE. As to the method: Animals: Squirrel (Saimiri sciureus) monkeys (n=7) were purchased from World Wide Primates (Miami, Fla.). The animals weighed between 0.6-0.9 kg and were in mid to late adulthood as determined from their general appearance (dentition, fur, other). Female monkeys were used since older animals were available that may better model Parkinson's disease. The animals were placed in quarantine upon arrival, and maintained in a temperature-controlled room (27±3° C.) with a relative humidity>30%, under a 13/11-hour light/dark cycle. Monkey food chow and fruits/vegetables were provided once daily, with water provided ad libitum. The monkeys were housed in separate cages to allow for clear behavioral assessments. The animals were released from quarantine after 1 month and treatments initiated. All procedures conformed to the National Institutes of Health Guide for the Care and Use of Laboratory Animals and were approved by the Institutional Animal Care and Use Committee at the Parkinson's Institute.
(§1) 1-Methyl-4-phenyl-1,2,3,6-tetrahydropyridine (MPTP) administration: Prior to lesioning, the animals were allowed to acclimate to the colony and rated for parkinsonism as described (Langston et al. Ann Neurol. 2000; 47:S79-89). All values were within the normal range. The monkeys were then injected subcutaneously with 2.0 mg/kg MPTP (Sigma, St-Louis, Mo.) dissolved in saline. The animals were rated for parkinsonism 3-4 weeks after MPTP administration. The disability scores ranged from 0 (normal) to 28 for a severely parkinsonian animal. Animals were assessed for 1) spatial hypokinesia (reduction in use of the available cage space), 2) body bradykinesia (increased slowness in body movement), 3) left and 4) right manual dexterity, 5) balance, 6) freezing and 7) action tremor. If they were not parkinsonian, MPTP injection (1.0-2.0 mg/kg) was repeated from 2-5 times for total doses of 3.5 to 13.5 mg/kg. Despite multiple MPTP dosing, two of the animals were not stably parkinsonian.
Nicotine treatment: All monkeys (n=7) were then given a drinking solution for 3 weeks consisting of commercially available orange Gatorade® to mask nicotine's bitter taste (FIG. 1). The control group (n=4) was continued on Gatorade® only, while nicotine (free base) was added to the Gatorade of the treated group (n=3). Nicotine dosing was started at 50 μg/ml for 1 week, 150 μg/ml for 1 week, with the concentration increased by […] over the next few weeks, up to 650 μg/ml (FIG. 1).
Levodopa administration: Monkeys were administered levodopa/carbidopa (5 mg/kg and 1.25 mg/kg, respectively), prepared by crushing a tablet of Sinemet® CR 100/25 (DuPont Pharma) and dissolving it in water. This dose of levodopa is within the range of that prescribed to Parkinson's disease patients. The monkeys were gavaged twice daily at 3.5-hour intervals for 8 weeks at a time using a 5-day-on/2-day-off schedule (Hsu et al., J Pharmacol Exp Ther. 2004; 311:770-777). During levodopa treatment, the monkeys were given fruits in the morning and food pellets 3.5 hours after the afternoon levodopa dose to optimize gastrointestinal absorption.
Dyskinesias were rated from videotapes, as described (Hsu et al., J Pharmacol Exp Ther. 2004; 311:770-777). This included a one hour baseline period (no drugs) from ˜8:00-9:00 AM, followed by two 3.5-hour treatment periods with levodopa starting at ˜9:00 AM and ˜12:30 PM. Dyskinesias were rated for 2-minute periods at 30-minute intervals by two independent raters blinded to treatment. They were rated on a scale of 0 (no dyskinesias) to 4; a score of 1 was indicative of subtle dyskinesias that were not sustained; 2, mild dyskinesias that were sustained; 3, moderate dyskinesias that impaired the ability to remain stationary; 4, severe dyskinesias that were generalized and incapacitating.
Data analyses: The levodopa treatment protocol used in the present study involved a 5-day-on/2-day-off schedule.

Series [2] relates to MPTP-lesioned squirrel monkeys. Nature of the series: Parkinsonism rating on or off levodopa in MPTP-lesioned monkeys. It counts as in vivo, Saimiri sciureus. Also on record: key to Parkinson Ratings Expt 1 / Parkinson Ratings Expt 2 (crossover): disability score 0 = normal to 28 = severely parkinsonian. How it is done:
as §1
Data analyses: The levodopa treatment protocol used in the present study involved a 5-day-on/2-day-off schedule. Parkinsonian ratings were done on Monday and Friday of each week, with the score averaged over the two days. Dyskinesias ratings were determined by averaging the scores on Wednesday and Thursday of each week. All values are expressed as the mean±SE of the indicated number of animals. Results were compared using paired t-tests or analysis of variance (ANOVA) followed by Bonferroni multiple comparison post hoc test, using Prism® program (GraphPad Software, Inc, San Diego, Calif.). A level of 0.05 was considered significant.
White bars indicate no nicotine treatment and black bars indicate nicotine treatment. Parkinsonism was evaluated immediately before the afternoon L-dopa dose and 1.5 to 2 hours after L-dopa treatment, when a maximal antiparkinsonian effect is anticipated. Two of the seven animals in the study were not parkinsonian, and therefore were not included in this analysis. Error bars are the means±standard error of five animals before and after crossover of nicotine treatment. **p<0.01, as compared with the same group with no L-dopa treatment by a Mann-Withney test.

The conditions of series [3]: general description; cited from earlier work.
Where [4] appears, read: on levodopa treatment, 1.5-2 hours after dosing, individual animals, scale 0-28.

Several values for one entry are separate records, joined by “and”; a condition that tells them apart may be missing. Identical values can stand only once.

As to `N[C@@H](Cc1ccc(O)c(O)c1)C(=O)O` [levodopa, (−)-L-a-amino-b-(3,4-dihydroxybenzene) propanoic acid], the “dyskinetic ratings 3 hours after the afternoon levodopa treatment” value in series [1] (week 2/3 of levodopa treatment, levodopa/carbidopa 5/1.25 mg/kg twice daily) was 0.5 ± 0.3; in series [1] (week 4 of levodopa treatment) it was 1.0 ± 0.4; in series [1] (week 6 of levodopa treatment) it was 1.1 ± 0.2; in series [1] (week 8 of levodopa treatment), 0.9 ± 0.1. Further, the parkinsonism ratings result in series [2] (measured 1.5-2 hours after levodopa dosing) is “reduced”. In series [2] (setting [4]), the “Parkinson Ratings Expt 1” value is 0.4 (2×) and 0.6. Moreover, in series [2] (setting [4]), the “Parkinson Ratings Expt 2 (crossover)” value was 1.8 and 0.9. Also, in series [2] (on levodopa treatment, 1.5-2 hours after dosing, n=5), the “Parkinson Ratings Mean ± SE (n)” value is 0.8 ± 0.3 (5). For the same compound, the solubility in water result in series [3] was “slightly soluble”.
